Results published in patent US4772607A, “Dialkenyl derivatives of xanthine, pharmaceutical compositions and methods of use therefor” (Warner-Lambert Company, priority 1986, dated 1988).
Where “and” joins values, the source holds several entries; their conditions need not be identical. Identical values can stand only once. Counter-ions that a name gives are not always drawn. Blank lines part the entries; values can stand above or below the compound they belong to.

How the values were obtained:
[1] = system: A1 and A2 adenosine receptor; settings: disclosed by Hamilton et al, J. Med. Chem. (1985) 28: 1071; cited from earlier work
[2] = system: locomotor suppressant effects of A1 selective adenosine agonist CPA; assay: CNS activity: antagonism of locomotor suppressant effect of A1 agonist CPA in mice; type: in vivo, mouse (male Swiss-Webster)
Experimental: (§1) The procedure employs naive animals obviating the need for extensive training and precluding possible cumulative drug effects.
(§2) Suspensions are ultrasonicated for 3 minutes.

[3] = system: locomotor suppressant effects of A2 selective agonist CV-1808; assay: CNS activity: antagonism of locomotor suppressant effect of A2 agonist CV-1808 in mice; type: in vivo, mouse (male Swiss-Webster); settings: for Locomotor activity, % suppression (B, A2 agonist alone): CV-1808 8 mg/kg IP alone
Experimental: as §1, §2

A1 adenosine receptor = target: T1, A1 adenosine receptor (Rattus norvegicus, UniProt P25099); assay: Adenosine Receptor Binding--A1 Receptor Affinity (RBA1), [3H]-CHA, rat whole brain membranes; set-up: species or system rat (male Long-Evans); settings: [3H]-CHA 1.0 nM, 25° C., one hour, pH 7.7; read-out: RBA-1 IC50 (adenosine A1 receptor affinity)
T1 construct: Whole brain minus cerebellum and brainstem from male Long-Evans rats (150-200 g) is homogenized; from tissue; host or cells: rat whole brain minus cerebellum and brainstem, membranes
T1 sequence (P25099 1-326): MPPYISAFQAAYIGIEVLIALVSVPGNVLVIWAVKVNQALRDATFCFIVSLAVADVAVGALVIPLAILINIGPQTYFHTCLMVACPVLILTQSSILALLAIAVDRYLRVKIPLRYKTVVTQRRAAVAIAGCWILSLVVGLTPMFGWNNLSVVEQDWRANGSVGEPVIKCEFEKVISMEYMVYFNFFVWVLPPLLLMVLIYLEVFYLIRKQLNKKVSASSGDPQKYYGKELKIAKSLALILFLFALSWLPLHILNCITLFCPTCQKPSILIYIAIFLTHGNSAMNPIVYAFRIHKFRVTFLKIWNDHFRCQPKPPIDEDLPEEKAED
Experimental: Adenosine Receptor Binding--A1 Receptor Affinity (RBA1)
Whole brain minus cerebellum and brainstem from male Long-Evans rats (150-200 g) is homogenized in 30 volumes of ice-cold 0.05M Tris-HCl buffer pH 7.7 using a Brinkman Polytron PT-10, (setting number 6 for 20 seconds) and centrifuged for ten minutes at 20,000×g (Sorvall RC-2), 4° C. The supernatant is discarded, and the pellet is resuspended and centrifuged as before. The pellet is resuspended in 20 ml Tris-HCl buffer containing two International Units/ml of adenosine deaminase (Sigma type III from calf intestinal mucosa), incubated at 37° C. for 30 minutes, then subsequently at 0° C. for ten minutes. The homogenate is again centrifuged, and the final pellet is resuspended in ice-cold 0.05M Tris-HCl buffer pH 7.7 to a concentration of 20 mg/ml original wet tissue weight and used immediately.
Tissue homogenate (10 mg/ml) is incubated in 0.05M Tris-HCl buffer pH 7.7 containing 1.0 nM [^3 H]-N6-cyclohexyladenosine ([^3 H]-CHA) with or without test agents in triplicate for one hour at 25° C. Incubation volume was 2 ml. Unbound [^3 H]-CHA is separated by rapid filtration under reduced pressure through Whatman glass fiber (GF/B) filters. The filters are rinsed three times with 5 ml of ice-cold 0.05M Tris-HCl buffer pH 7.7. The radio-labeled ligand retained on the filter is measured by liquid scintillation spectrophotometry after shaking the filters for one hour or longer on a mechanical shaker in 10 ml of Beckman Ready-Solv HP scintillation cocktail.
The Scatchard plot is calculated by linear regression of the line obtained by plotting the amount of radioligand bound (pmoles/gram of tissue) versus [formula] Since the amount of radioligand bound is a small fraction of the total amount added, free radioligand is defined as the concentration of (nM) of radioligand added to the incubation mixture. The Hill coefficient is calculated by linear regression of the line obtained by plotting the log of the bound radioligand vs the log of the [formula] The maximal number of binding sites (Bmax) is calculated from the Scatchard plot.

A2 adenosine receptor = target: T2, A2 adenosine receptor (Rattus norvegicus, UniProt P30543); assay: Adenosine Receptor Binding--A2 Receptor Affinity (RBA2), [3H]NECA, rat striatal membranes; set-up: species or system rat (Sprague-Dawley); settings: [3H]NECA 4 nM, 50 nM N6-cyclopentyladenosine, 25° C., 60 minutes; read-out: RBA-2 IC50 (adenosine A2 receptor affinity)
T2 construct: Brains are thawed and then kept on ice while the striata are dissected out; tissue Pel-Freez (Rogers, Ark.); host or cells: rat striatum, membranes
T2 sequence (P30543 whole entry): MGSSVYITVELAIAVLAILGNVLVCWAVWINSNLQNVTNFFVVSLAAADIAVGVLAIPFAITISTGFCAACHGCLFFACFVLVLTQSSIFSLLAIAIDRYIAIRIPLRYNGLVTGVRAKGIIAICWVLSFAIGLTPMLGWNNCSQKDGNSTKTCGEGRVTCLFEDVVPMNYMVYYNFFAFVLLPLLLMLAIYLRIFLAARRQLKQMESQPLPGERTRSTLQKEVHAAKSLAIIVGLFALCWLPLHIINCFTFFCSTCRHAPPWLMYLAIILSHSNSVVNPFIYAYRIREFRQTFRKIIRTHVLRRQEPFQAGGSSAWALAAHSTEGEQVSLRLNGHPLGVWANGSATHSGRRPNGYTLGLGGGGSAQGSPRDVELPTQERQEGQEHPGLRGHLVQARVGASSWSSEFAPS
Experimental: Adenosine Receptor Binding--A2 Receptor Affinity (RBA2)
The membrane suspension (5 mg/0.79 ml) contained sufficient MgCl2 and adenosine deaminase to give 10 mM and 0.1 units/ml, respectively, final concentration in the incubation.
[formula] where Y is cpm bound
T is cpm total binding without drug
S is cpm specific binding without drug
D is the concentration of drug and
K is the IC50 of the drug

[4] = CNS activity: locomotor activity of antagonist alone in mice (reference control); type: in vivo, mouse (male Swiss-Webster); settings: antagonist 10 mg/kg IP alone; CV-1808 experiment

Compound: 8-(4-sulfonylphenyl)-3,9-dihydro-1,3-bis(2-propenyl)-1H-purine-2,6-dione
A1 and A2 adenosine receptor binding activity (in words) [1]: having A1 and A2 adenosine receptor binding activity

Compound: C=CCn1c(=O)c2nc(C)[nH]c2n(CC=C)c1=O [8-methyl-3,9-dihydro-1,3-bis(2-propenyl)-1H-purine-2,6-dione]
A1 and A2 adenosine receptor binding activity (in words) [1]: having A1 and A2 adenosine receptor binding activity

Compound: OC[C@H]1O[C@@H](n2cnc3c(NC4CCCC4)ncnc32)[C@H](O)[C@@H]1O [CPA, N^6 -cyclopentyladenosine, reference compound]
Locomotor activity, % suppression (B, A1 agonist alone) ([2]; CPA 2 mg/kg IP alone): 90% and 94%

Compound: Nc1nc(Nc2ccccc2)nc2c1ncn2[C@@H]1O[C@H](CO)[C@@H](O)[C@H]1O [CV-1808, 2-anilinoadenosine, reference compound]
Locomotor activity, % suppression (B, A2 agonist alone) ([3]; 8 mg/kg): 83%
Locomotor activity, % suppression (B, A2 agonist alone) ([3]; listed as CV-1810): 62%

IC50 (A1 adenosine receptor): 130 nM
Compound: C=CCn1c(=O)c2nc(-c3ccc(Cl)cc3N)[nH]c2n(CC=C)c1=O [Example 1, 8-(2-Amino-4-chlorophenyl)-3,9-dihydro-1,3-bis(2-propenyl)-1H-purine-2,6-dione]
A1 and A2 adenosine receptor binding activity (in words) [1]: having A1 and A2 adenosine receptor binding activity

IC50 (A1 adenosine receptor): 6960 nM
Compound: C=CCn1c(=O)c2nc(-c3ccc(S(=O)(=O)O)cc3)[nH]c2n(CC=C)c1=O [Example 2, 4-(2,3,6,7-Tetrahydro-2,6-dioxo-1,3-di-2-propenyl-1H-purine-8-yl)benzenesulfonic acid]

Compound: C=CCn1c(=O)c2[nH]c(-c3ccc(S(=O)(=O)NCCCN(C)C)cc3)nc2n(CC=C)c1=O [Example 3, N-[3-(dimethylamino)propyl]-4-(2,3,6,7-tetrahydro-2,6-dioxo-1,3-di-2-propenyl-1H-purine-8-yl)benzenesulfonamide monohydrochloride]
IC50 (A1 adenosine receptor): 260 nM

IC50 (A1 adenosine receptor): 9 nM
IC50 (A2 adenosine receptor): 3500 nM
Compound: C=CCn1c(=O)c2[nH]c(C3CCCC3)nc2n(CC=C)c1=O [Example 4, 8-Cyclopentyl-3,7-dihydro-1,3-bis(2-propenyl)-1H-purine-2,6-dione]
Locomotor activity, % suppression (C, agonist + antagonist) ([2]; antagonist 10 mg/kg + CPA 2 mg/kg, IP): 16%
% Reversal (B - C) ÷ B × 100, against CPA (A1) ([2]; antagonist 10 mg/kg, CPA 2 mg/kg, IP): 82%
Reversal Rating A1 (against CPA) ([2]; paired t-test of B and C): A (if the values are significantly different (p<0.05) from each other then the dose effect is given a reversal rating of "A")
% Reversal (B - C) ÷ B × 100, against CV-1808 (A2) ([3]; antagonist 10 mg/kg, CV-1808 8 mg/kg, IP): 8%
Locomotor activity, % suppression (C, agonist + antagonist) ([3]; antagonist + CV-1808 8 mg/kg, IP, antagonist 10 mg/kg): 57%
Reversal Rating A2 (against CV-1808) ([3]; paired t-test of B and C): N (if the data are insignificant (p>0.05) then the dose effect is given a rating of "N")
Locomotor activity, % suppression (A, antagonist alone) [4]: 18%

Compound: C=CCn1c(=O)c2[nH]c(-c3ccc(S(=O)(=O)NCCCN(C)C)cc3)nc2n(CC=C)c1=O [N-[3-(dimethylamino)propyl]-4-(2,3,6,7-tetrahydro-2,6-dioxo-1,3-2-propenyl-1H-purine-8-yl)benzensulfonamide]
A1 and A2 adenosine receptor binding activity (in words) [1]: having A1 and A2 adenosine receptor binding activity
